Reference: patent publication US20210186982A1, “METHODS AND COMPOSITIONS FOR TREATING MELANOMA” (UNIVERSITE NICE SOPHIA ANTIPOLIS, priority 2017, published 2021)

How the values were obtained:
451Iu = experiment: MTS conversion assay, melanoma cell proliferation; format: cell-based; conditions: Homo sapiens, MET, BRAFV600E/p53*, resistance none, 48 h MTS, read-out: b-AP15 IC50
Experimental: (§1) Cell proliferation was measured by a MTS conversion assay using the CellTiter 96® Aqueous Non-Radioactive Cell Proliferation kit (Promega, Madison Wis.) according to the manufacturer instructions. Cells were seeded in 96-well plates (5×10^4 cells/well) and treated with different reagents for the indicated times and incubated at 37° C. with MTS reagent. The optical density of each sample at 490 nm was determined with a Multiskan FC plate reader (Thermo Fisher Scientific, Waltham, Mass. USA).

A375DR = experiment: MTS conversion assay, melanoma cell proliferation; format: cell-based; conditions: Homo sapiens, MET, BRAFV600E/CDKN2A*/?, resistance vemurafenib/ERKi, 48 h MTS, read-out: b-AP15 IC50
Experimental: as §1

HMV2 = experiment: MTS conversion assay, melanoma cell proliferation; format: cell-based; conditions: Homo sapiens, HMV-2, MET, NRAS*, resistance none, 48 h MTS, read-out: b-AP15 IC50
Experimental: as §1

MeWo = experiment: MTS conversion assay, melanoma cell proliferation; format: cell-based; conditions: Homo sapiens, MET, p53*/CDKN2A*, resistance none, 48 h MTS, read-out: b-AP15 IC50
Experimental: as §1

Mel1617R = experiment: MTS conversion assay, melanoma cell proliferation; format: cell-based; conditions: Homo sapiens, MET, BRAF*/p53*/?, resistance dabrafenib, 48 h MTS, read-out: b-AP15 IC50
Experimental: as §1

Mel1617 = experiment: MTS conversion assay, melanoma cell proliferation; format: cell-based; conditions: Homo sapiens, MET, BRAF*/p53*, resistance none, 48 h MTS, read-out: b-AP15 IC50
Experimental: as §1

SBCL2 = experiment: MTS conversion assay, melanoma cell proliferation; format: cell-based; conditions: Homo sapiens, RGP, NRASQ61K, resistance none, 48 h MTS, read-out: b-AP15 IC50
Experimental: as §1

WM164 = experiment: MTS conversion assay, melanoma cell proliferation; format: cell-based; conditions: Homo sapiens, MET, BRAFV600E/CDKN2A*, resistance none, 48 h MTS, read-out: b-AP15 IC50
Experimental: as §1

WM266-4 = experiment: MTS conversion assay, melanoma cell proliferation; format: cell-based; conditions: Homo sapiens, WM 266-4, MET, BRAFV600D/PTEN*, resistance none, 48 h MTS, read-out: b-AP15 IC50
Experimental: as §1

WM793 = experiment: MTS conversion assay, melanoma cell proliferation; format: cell-based; conditions: Homo sapiens, VGP, BRAFV600E/PTEN*, resistance none, 48 h MTS, read-out: b-AP15 IC50
Experimental: as §1

m229 = experiment: MTS conversion assay, melanoma cell proliferation; format: cell-based; conditions: Homo sapiens, MET, BRAFV600E/PTEN*, resistance none, 48 h MTS, read-out: b-AP15 IC50
Experimental: as §1

m238R = experiment: MTS conversion assay, melanoma cell proliferation; format: cell-based; conditions: Homo sapiens, MET, BRAFV600E/PTEN*/RTK*, resistance vemurafenib, 48 h MTS, read-out: b-AP15 IC50
Experimental: as §1

m238 = experiment: MTS conversion assay, melanoma cell proliferation; format: cell-based; conditions: Homo sapiens, MET, BRAFV600E/PTEN*, resistance none, 48 h MTS, read-out: b-AP15 IC50
Experimental: as §1

m249R = experiment: MTS conversion assay, melanoma cell proliferation; format: cell-based; conditions: Homo sapiens, MET, BRAFV600E/PTEN*/NRAS*, resistance vemurafenib, 48 h MTS, read-out: b-AP15 IC50
Experimental: as §1

m249 = experiment: MTS conversion assay, melanoma cell proliferation; format: cell-based; conditions: Homo sapiens, MET, BRAFV600E/PTEN*, resistance none, 48 h MTS, read-out: b-AP15 IC50
Experimental: as §1

16 melanoma cell lines = experiment: MTS proliferation assay, collection of melanoma cell lines; format: cell-based; conditions: Homo sapiens, range over 16 melanoma cell lines, read-out: IC50 of b-AP15 for 16 melanoma cell lines
Experimental: as §1

451Lu-R Luc+ cells = experiment: Melanoma xenograft in nude mice, tumor bioluminescence; format: in vivo; conditions: 10 mgkg-1 i.p. every 3 days, vs vehicle
Experimental: All mouse experiments were carried out in accordance with the Institutional Animal Care and the local ethics committee. For human melanoma xenografts, 5-week-old female athymic (nu/nu) mice (Harlan) were subcutaneously injected with 1×106 451Lu-R BRAF inhibitor resistant melanoma cells engineered to express a luciferase reporter (451Lu-R Luc+ cells) in 100 μl of PBS. After 3 days, mice were injected every 3 days intraperitoneally with vehicle or 10 mgkg-1 b-AP15 in 90/1/9 mix of Labrafil/Tween 80/DMA. At the indicated time, mice were anesthetized and injected intraperitoneally with 50 mgkg-1 D-luciferin (Perkin Elmer) in PBS. Images were acquired using a Photon Imager (Biospace Lab) system and data analysed with the M3Vision software (Biospace Lab). Tumor growth was monitored and quantified using BLI. The total numbers of photons per second per steradian per square centimeter were recorded. For BLI plots, photon flux was calculated for each mouse by using a rectangular region of interest encompassing the thorax of the mouse in a prone position.

ER stress response genes = experiment: qRT-PCR analysis of ER stress response genes; format: cell-based, human; conditions: 2 μM b-AP15, 6 h and 24 h; 12051u cells
Experimental: Total RNA was extracted from cell samples using Nucleospin RNAII kit (Macherey-Nagel) and following the manufacturer's instructions. Recovered RNA samples were quantified using NanoDrop spectrophotometer ND1000 (Thermo Fisher Scientific). Reverse transcription was performed on 1 μg of total RNA in a volume of 20 μL using High capacity cDNA Reverse Transcription kit (Applied Biosystems) according to the manufacturer's instructions. Quantitative PCR was performed on 20 ng cDNA samples, in sealed 96-well microtiter plates using the Platinum® SYBR Green qPCR Supermix-UDG w/ROX (Life Technologies) with the StepOnePlus System (Applied Biosystems). Relative mRNA levels were determined using the 2ΔΔCT method and ACTB and PPIA as housekeeping genes. Values are the mean of duplicates and are representative of two independent experiments.

Work on `Cc1cc(C(=O)CN2CCCC2)c(C)n1-c1ccc(F)cc1` [b-AP15] yielded an IC50 (451Iu) of 900 nM, an IC50 (A375DR) of 1300 nM and an IC50 (HMV2) of 1800 nM. It also gave an IC50 (MeWo) of 700 nM, an IC50 (Mel1617R) of 900 nM and an IC50 (Mel1617) of 1400 nM. It also gave an IC50 (SBCL2) of 400 nM, an IC50 (WM164) of 900 nM and an IC50 (WM266-4) of 500 nM. It also gave an IC50 (WM793) of 300 nM, an IC50 (m229) of 1200 nM and an IC50 (m238R) of 200 nM. For the same compound, the IC50 (m238) was 400 nM, the IC50 (m249R) was 3000 nM and the IC50 (m249) was 2000 nM. For the same compound, the IC50 (16 melanoma cell lines) was 400 to 2000 nM, the “melanoma burden, bioluminescence analysis of tumor growth” value (451Lu-R Luc+ cells) was “marked decrease in melanoma burden” and the “ER stress response (CHOP, BIP/GRP78, GADD34, ATF4, spliced XBP1)” value (ER stress response genes) was “triggered a potent ER stress response”.
